Values quoted from earlier work, collected in patent US20140100178A1, “COMPOSITION AND METHODS FOR SITE-SPECIFIC DRUG DELIVERY TO TREAT MALARIA AND OTHER LIVER DISEASES” (priority 2012, published 2014).

What was measured:
[1] = in vivo
[2] = prophylactic doses (0.5 mg base/kg/day); children and men with normal G6PD activity; toxicity associated with >10%

Compound: COc1cc(NC(C)CCCN)c2ncccc2c1 (centres unmarked) [primaquine, Primaquine]
- half life [1]: ~4 h
- mean methemoglobin rates [2]: 5.8%
